# Assay results as given in patent publication US9822382B2, “Process for making ethanol by fermentation” (Evonik Degussa GmbH, priority 2014, dated 2017).
# Legend:
# Assay type in all cases: cell-based
# Yeast [1] = assay: Yeast viability and yeast flocculation in fermented mash, sugar cane ethanol production mill trial
# Method: (§1) Bacterial and yeast cell counts, yeast cell viability and yeast flocculation were determined as described in A. J. Oliveira et al., Curso de treinamento em microbiologia, Piracicaba: FERMENTEC and ESALQ, 1996 and in A. J. Oliveira et al., Métodos para o controle microbiológico na produção de açúcar e álcool, Piracicaba: FERMENTEC, FEALQ and ESALQ, 1996. Bacterial infection rates were calculated as the ratio of the rod bacteria cell count and the yeast cell count.
# Examples 9 to 11 were carried out in a sugar cane ethanol production mill operating 6 fermenters in fed-batch. The fermented mash is sent to a centrifuge which separates yeast cream with an average yeast content of 63% by weight. The yeast cream is diluted with water to an average yeast content of 27% by weight and transferred to a stirred yeast cream recovery tank. Diluted yeast cream is passed continuously from this tank to a stirred yeast treatment tank at a rate of from 42 to 127 m^3/h. Sulfuric acid is added to the yeast treatment tank to maintain a pH in the range from 1.8 to 2.8. The average residence time in both the yeast cream recovery tank and the yeast treatment tank is in the range of from 1.3 to 4.0 h. Fermentation is carried out by charging the acidified yeast concentrate to a fermenter over a 1 to 2 h period, followed by feeding sugar cane mash with a sugar content of 22° Brix and a pH of 5.8 to the fermenter over a 6 h period. Fermentation is continued for a further 2 h without feed and the fermented mash is sent to a centrifuge. Bacterial contamination was monitored by microbiological analysis of samples of fermented mash taken before feeding the mash to a centrifuge. Samples were analyzed for bacterial and yeast cell counts and for yeast cell viability and yeast flocculation.
# In example 9, equilibrium peroxyacetic acid PERACLEAN® 15 of Evonik was dosed to the yeast treatment tank for 28 h in an amount of 60 ppm during days 3 and 4 of the experiment. pH in the yeast treatment tank was maintained in the range of from 1.84 to 2.02.
# In example 10, equilibrium peroxyacetic acid PERACLEAN® 15 of Evonik was dosed to the yeast treatment tank for 43 h during days 6 and 7 of the experiment in an amount that was lowered stepwise from 49 ppm to 20 ppm. pH in the yeast treatment tank was maintained in the range of from 1.97 to 2.60.
# In example 11, equilibrium peroxyacetic acid PERACLEAN® 15 of Evonik was dosed to the yeast cream recovery tank on days 2 and 3 of the experiment for 13 h in an amount of 50 ppm, followed by dosing for 28 h in an amount of 30 ppm. During this period the pH in the yeast cream recovery tank was in the range of from 3.0 to 3.3. Then dosing of peroxyacetic acid to the yeast cream recovery tank was stopped and peroxyacetic acid was dosed to the yeast treatment tank for 18 h in an amount of 30 ppm. During this period the pH in the yeast treatment tank was about 2.0.
# Yeast [2] = assay: Yeast cell count and yeast cell viability, laboratory treatment of yeast cream and fermentation; conditions: for viability at 50 µg/mL / viability at 50 ppm / viability at 60 ppm: Saccharomyces cerevisiae
# Method: as §1
# (§2) The examples were carried out with a yeast cream obtained by separating yeast from a fermented sugar cane mush from a sugar cane ethanol production mill operating with batch fermentation and yeast recycle. The yeast cream was diluted with water to a yeast cell content of about 24% by weight and the pH of the diluted yeast cream was adjusted to a value of 1.8 by adding sulfuric acid.
# (§3) Then 322 ml of acidified diluted yeast cream were placed in a vessel and 678 ml of cane must having a pH of 6.2 were added with mixing in 5 portions with 1 h intervals between additions. Fermentation of the cane must with the acidified diluted yeast cream was carried out at 33° C. for 21 h. The final pH of the fermented mash was 4.8.
# (§4) In example 2, equilibrium peroxyacetic acid PERACLEAN® 15 of Evonik was added to the acidified diluted yeast cream in an amount of 50 mg/l and the resulting treated yeast concentrate was kept at 30° C. for 1.7 hours before it was analyzed microbiologically. Thereafter, fermentation was carried out as in example 1.
# (§5) Examples 1 and 2 were repeated without adding peroxyacetic acid in example 3 and with addition of equilibrium peroxyacetic acid PERACLEAN® 15 in an amount of 60 mg/l peroxyacetic acid in example 4. The treated yeast cream was kept at 30° C. for 2 hours before it was analyzed microbiologically and fermentation was started.
# as §2, with “that operates” for “operating”, “fed-batch” for “batch”, “27%” for “24%”, “weight. The” for “weight and the”, “4.0.” for “adjusted to a value of 1.8 by adding sulfuric acid.”
# (§6) In example 6, equilibrium peroxyacetic acid PERACLEAN® 15 of Evonik was added to the diluted yeast cream in an amount of 50 mg/l and the resulting treated yeast concentrate was kept at 30° C. for 2.3 hours before it was analyzed microbiologically.
# (§7) In example 8, the pH of the diluted yeast cream was adjusted as in example 7, equilibrium peroxyacetic acid PERACLEAN® 15 of Evonik was added to the acidified diluted yeast cream in an amount of 50 mg/l and the resulting treated yeast concentrate was kept at 30° C. for 2.0 hours before it was analyzed microbiologically.
# Rod bacteria = Rod bacteria cell count and infection rate, laboratory treatment of yeast cream and fermentation
# Method: as §1, §2, §3, §4, §5
# as §2, with “that operates” for “operating”, “fed-batch” for “batch”, “27%” for “24%”, “weight. The” for “weight and the”, “4.0.” for “adjusted to a value of 1.8 by adding sulfuric acid.”
# as §6, §7
# [3] = Example 10, fermenter 2, day 7, 49 ppm lowered stepwise to 20 ppm to yeast treatment tank during days 6 and 7, pH 1.97 to 2.60
# [4] = Example 10, fermenter 2, day 8, after dosing during days 6 and 7
# [5] = Example 10, fermenter 2, day 9, after dosing during days 6 and 7
# [6] = Example 10, fermenter 3, day 7, 49 ppm lowered stepwise to 20 ppm to yeast treatment tank during days 6 and 7, pH 1.97 to 2.60
# [7] = Example 10, fermenter 3, day 8, after dosing during days 6 and 7
# [8] = Example 10, fermenter 3, day 9, after dosing during days 6 and 7
# [9] = Example 11, fermenter 3, day 2, 50 ppm then 30 ppm to yeast cream recovery tank on days 2 and 3, pH 3.0 to 3.3
# [10] = Example 11, fermenter 3, day 4, after recovery tank dosing, 30 ppm to yeast treatment tank for 18 h, pH about 2.0
# [11] = Example 11, fermenter 6, day 3, 50 ppm then 30 ppm to yeast cream recovery tank on days 2 and 3, pH 3.0 to 3.3
# [12] = Example 2, 50 ppm, pH 1.8, fermented mash after 21 h
# [13] = Example 2, 50 ppm, pH 1.8, treated yeast concentrate, 30° C. 1.7 hours
# [14] = Example 4, 60 ppm, pH 1.8, fermented mash after 19 h
# [15] = Example 4, 60 ppm, pH 1.8, treated yeast concentrate, 30° C. 2 hours
# [16] = Example 6, 50 mg/l, no pH adjustment (pH 4.17), treated yeast concentrate, 30° C. 2.3 hours
# [17] = Example 8, 50 mg/l, pH adjusted to 2.0 with sulfuric acid (pH 2.40), treated yeast concentrate, 30° C. 2.0 hours
# [18] = treatment of the yeast concentrate at pH 1.8 before using it for the fermentation
compound,measurement,setting,value
CC(=O)OO [peroxyacetic acid],Yeast flocculation in %,"Yeast [1]; Example 9, fermenter 4, day 6, after addition (60 ppm, days 3 and 4) was stopped",55%
same,Yeast flocculation in %,"Yeast [1]; Example 10, fermenter 2, day 6, 49 ppm lowered stepwise to 20 ppm to yeast treatment tank during days 6 and 7, pH 1.97 to 2.60",0%
same,Yeast flocculation in %,Yeast [1]; [3],0%
same,Yeast viability in %,Yeast [1]; [3],75%
same,Yeast flocculation in %,Yeast [1]; [4],0%
same,Yeast viability in %,Yeast [1]; [4],79%
same,Yeast flocculation in %,Yeast [1]; [5],37%
same,Yeast viability in %,Yeast [1]; [5],79%
same,Yeast flocculation in %,"Yeast [1]; Example 10, fermenter 3, day 6, 49 ppm lowered stepwise to 20 ppm to yeast treatment tank during days 6 and 7, pH 1.97 to 2.60",0%
same,Yeast flocculation in %,Yeast [1]; [6],0%
same,Yeast viability in %,Yeast [1]; [6],70%
same,Yeast flocculation in %,Yeast [1]; [7],0%
same,Yeast viability in %,Yeast [1]; [7],78%
same,Yeast flocculation in %,Yeast [1]; [8],45%
same,Yeast viability in %,Yeast [1]; [8],84%
same,Yeast flocculation in %,Yeast [1]; [9],38%
same,Yeast viability in %,Yeast [1]; [9],82%
same,Yeast flocculation in %,Yeast [1]; [10],0%
same,Yeast viability in %,Yeast [1]; [10],76%
same,Yeast flocculation in %,"Yeast [1]; Example 11, fermenter 3, day 6, after the dosing periods",66%
same,Yeast flocculation in %,"Yeast [1]; Example 11, fermenter 6, day 2, 50 ppm then 30 ppm to yeast cream recovery tank on days 2 and 3, pH 3.0 to 3.3",0%
same,Yeast flocculation in %,Yeast [1]; [11],0%
same,Yeast viability in %,Yeast [1]; [11],89%
same,Yeast flocculation in %,"Yeast [1]; Example 11, fermenter 6, day 5, after the dosing periods",65%
same,Yeast cells/ml,Yeast [2]; [12],230*10^6 cells/ml
same,Yeast cells/ml,Yeast [2]; [13],550*10^6 cells/ml
same,Yeast cells/ml,Yeast [2]; [14],180*10^6 cells/ml
same,Yeast cells/ml,Yeast [2]; [15],710*10^6 cells/ml
same,Yeast cells/ml,Yeast [2]; [16],820*10^6 cells/ml
same,Yeast cells/ml,Yeast [2]; [17],830*10^6 cells/ml
same,viability at 50 µg/mL,"Yeast [2]; pH 2.4, Example 8, 50 mg/l, pH adjusted to 2.0 with sulfuric acid (pH 2.40), treated yeast concentrate, 30° C. 2.0 hours",88%
same,viability at 50 ppm,Yeast [2]; [12],81%
same,viability at 50 ppm,Yeast [2]; [13],73%
same,viability at 60 ppm,Yeast [2]; [14],80%
same,viability at 60 ppm,Yeast [2]; [15],83%
same,viability at 50 µg/mL,Yeast [2]; [16],86%
same,yeast viability in the fermentation,Yeast [2]; [18],does not affect yeast viability
same,Infection rate in %,Rod bacteria; [12],2.6%
same,Rod bacteria cells/ml,Rod bacteria; [12],6.1*10^6 cells/ml
same,Infection rate in %,Rod bacteria; [13],0.5%
same,Rod bacteria cells/ml,Rod bacteria; [13],2.9*10^6 cells/ml
same,Infection rate in %,Rod bacteria; [14],0.1%
same,Rod bacteria cells/ml,Rod bacteria; [14],0.22*10^6 cells/ml
same,Infection rate in %,Rod bacteria; [15],0.3%
same,Rod bacteria cells/ml,Rod bacteria; [15],1.8*10^6 cells/ml
same,Infection rate in %,Rod bacteria; [16],8.3%
same,Rod bacteria cells/ml,Rod bacteria; [16],68*10^6 cells/ml
same,Infection rate in %,Rod bacteria; [17],1.7%
same,Rod bacteria cells/ml,Rod bacteria; [17],14*10^6 cells/ml
same,effectiveness of treatment of the yeast concentrate against bacterial contamination,Rod bacteria; pH not adjusted to the claimed range by addition of acid (table 5),ineffective
same,combined effect of pH adjustment with mineral acid and peroxyacetic acid addition,"Rod bacteria; table 5, Examples 5 to 8",synergistic effect
same,bacterial contamination of the fermented mash,Rod bacteria; [18],effective in preventing bacterial contamination
